According to patent publication US9321776B2, “Isochromene derivatives as phoshoinositide 3-kinases inhibitors” (CHIESI FARMACEUTICI S.p.A., priority 2013, dated 2016):
Where a name gives a salt, the structure may show the parent alone.

Experiments:
Assay in all cases: PI3K enzyme inhibitory activity in the cell free assay (ADP-Glo Kinase Assay)
Assay type in all cases: biochemical
[1] = target: T1, PI3Kδ (Homo sapiens, UniProt O00329); details: human recombinant PI3Kδ, ATP 80 μM; read-out: PI3K delta inhibition
T1 construct: purchased Millipore Ltd (Billerica, Mass.)
T1 sequence (O00329 1-1044): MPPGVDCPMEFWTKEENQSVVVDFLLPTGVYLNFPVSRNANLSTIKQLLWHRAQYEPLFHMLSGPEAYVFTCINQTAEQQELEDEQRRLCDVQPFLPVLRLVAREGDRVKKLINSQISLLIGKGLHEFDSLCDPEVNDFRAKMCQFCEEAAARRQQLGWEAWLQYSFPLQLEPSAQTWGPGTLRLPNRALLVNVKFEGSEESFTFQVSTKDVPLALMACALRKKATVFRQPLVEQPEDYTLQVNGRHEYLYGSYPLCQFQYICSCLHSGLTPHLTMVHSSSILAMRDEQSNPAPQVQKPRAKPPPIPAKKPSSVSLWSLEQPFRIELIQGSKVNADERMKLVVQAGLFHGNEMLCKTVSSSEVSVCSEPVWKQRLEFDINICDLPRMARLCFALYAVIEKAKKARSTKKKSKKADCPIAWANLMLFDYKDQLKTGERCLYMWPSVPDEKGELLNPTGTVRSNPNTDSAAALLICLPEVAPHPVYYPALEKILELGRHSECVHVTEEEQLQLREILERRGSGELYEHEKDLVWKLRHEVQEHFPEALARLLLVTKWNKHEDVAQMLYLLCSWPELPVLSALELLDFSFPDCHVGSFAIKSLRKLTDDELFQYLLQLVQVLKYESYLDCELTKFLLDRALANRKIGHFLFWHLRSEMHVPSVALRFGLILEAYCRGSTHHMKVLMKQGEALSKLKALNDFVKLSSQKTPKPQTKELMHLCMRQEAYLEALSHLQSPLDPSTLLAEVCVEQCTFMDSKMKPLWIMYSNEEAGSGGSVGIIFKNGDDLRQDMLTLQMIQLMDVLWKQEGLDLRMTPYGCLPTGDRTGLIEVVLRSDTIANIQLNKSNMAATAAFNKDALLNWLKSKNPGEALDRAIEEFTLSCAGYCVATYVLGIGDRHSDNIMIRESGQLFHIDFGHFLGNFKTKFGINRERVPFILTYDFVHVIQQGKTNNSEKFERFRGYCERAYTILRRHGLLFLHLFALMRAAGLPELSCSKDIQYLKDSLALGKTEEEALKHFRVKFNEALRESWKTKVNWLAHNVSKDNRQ

[2] = target: T2, PI3Kα (Homo sapiens, UniProt P42336); details: human recombinant PI3Kα, ATP 50 μM; read-out: PI3K alpha inhibition
T2 construct: purchased Millipore Ltd (Billerica, Mass.)
T2 sequence (P42336 whole entry): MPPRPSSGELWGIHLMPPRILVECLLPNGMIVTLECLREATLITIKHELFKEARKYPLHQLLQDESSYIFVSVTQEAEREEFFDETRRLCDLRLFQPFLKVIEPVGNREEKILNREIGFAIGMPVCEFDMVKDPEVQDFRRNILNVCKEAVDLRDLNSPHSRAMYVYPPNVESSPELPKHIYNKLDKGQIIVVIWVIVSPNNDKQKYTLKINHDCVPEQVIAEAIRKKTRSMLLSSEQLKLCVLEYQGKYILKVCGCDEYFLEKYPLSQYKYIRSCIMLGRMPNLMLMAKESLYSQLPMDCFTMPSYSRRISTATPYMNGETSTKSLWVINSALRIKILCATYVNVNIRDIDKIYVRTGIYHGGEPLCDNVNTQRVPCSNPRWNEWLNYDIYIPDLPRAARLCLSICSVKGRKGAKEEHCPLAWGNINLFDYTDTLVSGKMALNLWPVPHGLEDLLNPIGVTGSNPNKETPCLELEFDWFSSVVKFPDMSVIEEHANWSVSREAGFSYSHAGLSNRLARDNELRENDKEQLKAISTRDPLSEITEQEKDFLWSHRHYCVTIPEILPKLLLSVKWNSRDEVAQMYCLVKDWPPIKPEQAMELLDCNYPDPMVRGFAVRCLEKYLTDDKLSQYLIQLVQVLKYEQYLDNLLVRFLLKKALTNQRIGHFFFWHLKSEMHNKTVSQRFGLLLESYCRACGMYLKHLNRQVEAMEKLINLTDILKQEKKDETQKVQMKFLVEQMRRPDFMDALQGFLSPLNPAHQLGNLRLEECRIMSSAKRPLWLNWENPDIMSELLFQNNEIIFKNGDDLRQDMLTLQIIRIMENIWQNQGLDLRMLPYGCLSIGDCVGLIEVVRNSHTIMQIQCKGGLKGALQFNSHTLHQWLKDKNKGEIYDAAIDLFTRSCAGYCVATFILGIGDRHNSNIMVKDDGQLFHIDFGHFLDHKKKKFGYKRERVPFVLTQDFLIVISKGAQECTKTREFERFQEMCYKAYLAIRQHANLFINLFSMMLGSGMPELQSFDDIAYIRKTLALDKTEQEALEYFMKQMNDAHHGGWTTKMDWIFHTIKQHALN

[3] = target: T3, PI3Kβ (Homo sapiens, UniProt P42338); details: human recombinant PI3Kβ, ATP 100 μM; read-out: PI3K beta inhibition
T3 construct: purchased Millipore Ltd (Billerica, Mass.)
T3 sequence (P42338 whole entry): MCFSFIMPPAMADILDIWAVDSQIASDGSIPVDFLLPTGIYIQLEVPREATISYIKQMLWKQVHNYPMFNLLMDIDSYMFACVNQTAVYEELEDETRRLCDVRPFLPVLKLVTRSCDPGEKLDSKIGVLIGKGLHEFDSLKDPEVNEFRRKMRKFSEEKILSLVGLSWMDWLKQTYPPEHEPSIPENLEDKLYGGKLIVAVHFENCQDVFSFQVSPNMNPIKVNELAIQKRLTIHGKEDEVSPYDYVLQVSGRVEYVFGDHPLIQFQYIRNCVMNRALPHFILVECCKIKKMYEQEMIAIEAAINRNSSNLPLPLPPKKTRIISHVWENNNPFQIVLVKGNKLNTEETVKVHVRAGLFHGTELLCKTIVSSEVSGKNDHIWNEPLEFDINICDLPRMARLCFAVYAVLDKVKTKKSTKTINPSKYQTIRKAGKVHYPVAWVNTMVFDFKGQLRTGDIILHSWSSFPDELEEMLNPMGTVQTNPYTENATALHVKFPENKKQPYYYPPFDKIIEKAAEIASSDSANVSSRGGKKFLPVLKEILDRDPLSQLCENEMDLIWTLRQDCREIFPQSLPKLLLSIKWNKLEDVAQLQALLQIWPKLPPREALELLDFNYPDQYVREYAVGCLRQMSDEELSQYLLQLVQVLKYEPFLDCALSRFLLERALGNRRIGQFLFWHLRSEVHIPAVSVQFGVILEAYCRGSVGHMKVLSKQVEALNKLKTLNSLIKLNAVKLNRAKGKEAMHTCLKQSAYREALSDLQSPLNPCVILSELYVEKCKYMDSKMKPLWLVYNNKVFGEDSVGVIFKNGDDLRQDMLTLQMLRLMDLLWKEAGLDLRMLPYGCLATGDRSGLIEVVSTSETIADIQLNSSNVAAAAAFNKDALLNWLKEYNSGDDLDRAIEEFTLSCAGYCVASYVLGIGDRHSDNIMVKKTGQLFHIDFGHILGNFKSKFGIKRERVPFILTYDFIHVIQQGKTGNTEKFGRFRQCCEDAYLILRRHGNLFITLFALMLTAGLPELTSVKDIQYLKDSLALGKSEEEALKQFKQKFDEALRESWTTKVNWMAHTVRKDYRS

[4] = target: T4, PI3Kγ (Homo sapiens, UniProt P48736); details: human recombinant PI3Kγ, ATP 30 μM; read-out: PI3K gamma inhibition
T4 construct: purchased Millipore Ltd (Billerica, Mass.)
T4 sequence (P48736 whole entry): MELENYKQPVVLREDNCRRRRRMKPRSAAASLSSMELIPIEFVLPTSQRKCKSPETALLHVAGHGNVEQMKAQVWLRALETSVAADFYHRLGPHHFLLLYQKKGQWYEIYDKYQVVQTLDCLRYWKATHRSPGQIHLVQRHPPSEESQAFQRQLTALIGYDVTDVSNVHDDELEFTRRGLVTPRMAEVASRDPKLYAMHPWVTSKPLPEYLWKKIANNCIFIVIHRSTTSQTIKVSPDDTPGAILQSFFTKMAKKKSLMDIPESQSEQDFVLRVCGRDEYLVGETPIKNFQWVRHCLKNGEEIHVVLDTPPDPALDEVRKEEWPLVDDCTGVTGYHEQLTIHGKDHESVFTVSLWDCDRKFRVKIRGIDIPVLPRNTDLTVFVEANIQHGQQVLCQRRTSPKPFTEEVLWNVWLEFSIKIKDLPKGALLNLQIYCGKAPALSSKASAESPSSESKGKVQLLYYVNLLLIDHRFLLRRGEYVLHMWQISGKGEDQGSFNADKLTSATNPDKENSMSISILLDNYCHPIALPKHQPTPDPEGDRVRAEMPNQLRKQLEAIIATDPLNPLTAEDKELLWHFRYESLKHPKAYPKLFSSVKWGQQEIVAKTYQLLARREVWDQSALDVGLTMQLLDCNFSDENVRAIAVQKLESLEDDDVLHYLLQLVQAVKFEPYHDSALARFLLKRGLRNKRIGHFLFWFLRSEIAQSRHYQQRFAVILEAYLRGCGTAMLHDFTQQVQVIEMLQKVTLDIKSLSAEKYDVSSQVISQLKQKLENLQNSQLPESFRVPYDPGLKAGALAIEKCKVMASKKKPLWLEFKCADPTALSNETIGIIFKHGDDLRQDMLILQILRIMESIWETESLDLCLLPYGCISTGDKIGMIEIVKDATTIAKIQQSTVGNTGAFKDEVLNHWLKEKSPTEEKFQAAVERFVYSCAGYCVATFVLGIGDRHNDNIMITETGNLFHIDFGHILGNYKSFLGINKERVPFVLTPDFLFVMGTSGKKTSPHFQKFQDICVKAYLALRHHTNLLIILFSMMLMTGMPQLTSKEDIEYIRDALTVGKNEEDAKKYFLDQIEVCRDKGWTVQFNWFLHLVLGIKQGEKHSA

Row | IC50 [1] | IC50 [2] | IC50 [3] | IC50 [4] | SMILES
1 | < 0.01 µM | > 1 µM | 0.01 to 1 µM | 0.01 to 1 µM | CC(c1oc(=O)c2ccccc2c1C1=CCCN(Cc2ccccc2)C1)n1nc(-c2cc(O)cc(F)c2)c2c(N)ncnc21 (single isomer, unassigned) [Example 169a, 3-(1-(4-amino-3-(3-fluoro-5-hydroxyphenyl)-1H-pyrazolo[3,4-d]pyrimidin-1-yl)ethyl)-4-(1-benzyl-1,2,5,6-tetrahydropyridin-3-yl)-1H-isochromen-1-one hydrochloride single enantiomers]
2 | < 0.01 µM | > 1 µM | 0.01 to 1 µM | > 1 µM | CC(Nc1ncnc2[nH]cnc12)c1oc(=O)c2ccccc2c1C1=CCNCC1 (stereo not shown) [Example 23, 3-(1-(9H-Purin-6-ylamino)ethyl)-4-(1,2,3,6-tetrahydropyridin-4-yl)-1H-isochromen-1-one hydrochloride]
3 | < 0.01 µM | 0.01 to 1 µM | 0.01 to 1 µM | 0.01 to 1 µM | Cc1cccc(-c2c(C(C)n3nc(-c4cc(O)cc(F)c4)c4c(N)ncnc43)oc(=O)c3ccccc23)c1 (stereo not shown) [Example 41, 3-(1-(4-Amino-3-(3-fluoro-5-hydroxyphenyl)-1H-pyrazolo[3,4-d]pyrimidin-1-yl)ethyl)-4-m-tolyl-1H-isochromen-1-one]
4 | < 0.01 µM | > 1 µM | > 1 µM | > 1 µM | CC(Nc1ncnc2[nH]cnc12)c1oc(=O)c2ccccc2c1C1=CCN(C)CC1 (stereo not shown) [Example 45, 3-(1-(9H-purin-6-ylamino)ethyl)-4-(1-methyl-1,2,3,6-tetrahydropyridin-4-yl)-1H-isochromen-1-one hydrochloride]
5 | 0.01 to 1 µM | > 1 µM | > 1 µM | 0.01 to 1 µM | CC(Nc1ncnc2[nH]cnc12)c1oc(=O)c2ccccc2c1-c1ccc(CN2CCOCC2)cc1 (stereo not shown) [Example 47, 3-(1-(9H-purin-6-ylamino)ethyl)-4-(4-(morpholinomethyl)phenyl)-1H-isochromen-1-one hydrochloride]
6 | < 0.01 µM | 0.01 to 1 µM | 0.01 to 1 µM | 0.01 to 1 µM | CC(c1oc(=O)c2ccccc2c1-c1ccccc1)n1nc(-c2cnc(N)s2)c2c(N)ncnc21 (stereo not shown) [Example 59, 3-(1-(4-amino-3-(2-aminothiazol-5-yl)-1H-pyrazolo[3,4-d]pyrimidin-1-yl)ethyl)-4-phenyl-1H-isochromen-1-one hydrochloride]
7 | < 0.01 µM | 0.01 to 1 µM | 0.01 to 1 µM | 0.01 to 1 µM | COc1ccc(-c2nn(C(C)c3oc(=O)c4ccccc4c3-c3ccccc3)c3ncnc(N)c23)cn1 (stereo not shown) [Example 60, 3-(1-(4-amino-3-(6-methoxypyridin-3-yl)-1H-pyrazolo[3,4-d]pyrimidin-1-yl)ethyl)-4-phenyl-1H-isochromen-1-one]
8 | < 0.01 µM | 0.01 to 1 µM | 0.01 to 1 µM | 0.01 to 1 µM | CC(=O)Nc1ncc(-c2nn(C(C)c3oc(=O)c4ccccc4c3-c3ccccc3)c3ncnc(N)c23)s1 (stereo not shown) [Example 62, N-(5-(4-amino-1-(1-(1-oxo-4-phenyl-1H-isochromen-3-yl)ethyl)-1H-pyrazolo[3,4-d]pyrimidin-3-yl)thiazol-2-yl)acetamide]
9 | < 0.01 µM | 0.01 to 1 µM | 0.01 to 1 µM | 0.01 to 1 µM | CC(c1oc(=O)c2ccccc2c1C1=CCCN(C)C1)n1nc(-c2cc(O)cc(F)c2)c2c(N)ncnc21 (stereo not shown) [Example 63, 3-(1-(4-amino-3-(3-fluoro-5-hydroxyphenyl)-1H-pyrazolo[3,4-d]pyrimidin-1-yl)ethyl)-4-(1-methyl-1,2,5,6-tetrahydropyridin-3-yl)-1H-isochromen-1-one hydrochloride]
10 | < 0.01 µM | 0.01 to 1 µM | 0.01 to 1 µM | 0.01 to 1 µM | CC(c1oc(=O)c2ccccc2c1C1=CCN(Cc2ccncc2)CC1)n1nc(-c2cc(O)cc(F)c2)c2c(N)ncnc21 (stereo not shown) [Example 65, 3-(1-(4-amino-3-(3-fluoro-5-hydroxyphenyl)-1H-pyrazolo[3,4-d]pyrimidin-1-yl)ethyl)-4-(1-(pyridin-4-ylmethyl)-1,2,3,6-tetrahydropyridin-4-yl)-1H-isochromen-1-one hydrochloride]
